In one experiment the test system is A375 malignant melanoma. Put plainly: Cell Growth Inhibition Assay (MTS, CellTiter 96 AQueous). Type of experiment: cell-based. The conditions noted are these: Homo sapiens, A-375; Table 3; A375 cells, 72 hr with compound, MTS readout; read-out: IC50 (nM) Cell line A375-Melanoma. The protocol:
(§1) The two cell lines used, A375 malignant melanoma and A-549 lung carcinoma, were purchased from American Type Culture Collection. These cells were cultured at 37° C. in a humidified atmosphere of 5% CO2 in Dulbecco's Modified Eagle Medium (DMEM) supplemented with 10% fetal bovine serum (FBS), 0.1% glutamine and 0.1% penicillin-streptomycin. DMEM, FBS, glutamine and penicillin-streptomycin were purchased from Life Technologies (Grand Island, N.Y.).
(§2) Exponentially growing cells were seeded at ˜3000 (50 μl) cells per well in 96-well flat-bottomed microtiter plates and then incubated at 37° C. in a humidified atmosphere of 5% CO2/95% air for 24 hr. An analogue was dissolved in dimethyl sulfoxide to give a concentration of 0.6 mg/ml, which was further diluted with the culture medium containing 10% fetal bovine serum. Nine three-fold dilutions were prepared with the maximum concentration being 1/300 of the original DMSO solution (i.e. 2000 ng/ml). This procedure was repeated for each analogue. Fifty microliters of the obtained dilutions were each transferred into the well of the above described culture plate. The cell culture was then placed back into the incubator at 37° C. under the 5% CO2 atmosphere for 72 hr. Cell proliferation was quantified by using the CellTiter 96 AQueous Assay (Promega). In this assay a mixture solution (20 μl) of MTS [Owen's reagent: 3-(4,5-dimethylthiazol-2-yl)-5-(3-carbomethoxyphenyl)-2-(4-sulfophenyl)-2H-tetrazolium inner salt] and phenazine methosulfate (PMS) was added to each well. The resulting mixtures were further incubated for 2.5 hr. The absorbance was measured with a microplate reader at a test wavelength of 540 nm and a reference wavelength of 655 nm to serve as an index of the number of viable cells. The inhibitory ratio of the test compound was calculated according to the following formula: inhibition ratio (%)=100×(C−T)/C, where T is an absorbance of the well containing a test compound and C is an absorbance of the well containing no test compound. The IC50 was calculated by the least squares method.

The test system of a further experiment is A-549 lung carcinoma. The experiment is described as above. Type of experiment: cell-based. Conditions: Homo sapiens; Table 3; A549 cells, 72 hr with compound, MTS readout; read-out: IC50 (nM) Cell line A549-Lung. The protocol:
as §1, §2

As usually defined, the IC50 is the midpoint of a concentration-inhibition curve. Take `COc1c(C)c(OC)c2c(c1O)[C@@H]1[C@@H]3Cc4c(OC)c(C)c(OC)c(O)c4[C@H](CNC(=O)c4ccc5ccccc5n4)N3[C@@H](OC)[C@H](C2)N1C` [drawing 172 X = OCH3, Methoxy derivative]: the IC50 with A375 malignant melanoma was 120 nM; with A-549 lung carcinoma, 1100 nM.
As for `COc1c(C)c(OC)c2c(c1O)[C@@H]1[C@@H]3Cc4c(OC)c(C)c(OC)c(O)c4[C@H](CNC(=O)c4ccc5ccccc5n4)N3[C@@H](O)[C@H](C2)N1C` [drawing 172 X = OH, Hemiaminal derivative], the 50% inhibitory concentration (IC50) in the experiment on A375 malignant melanoma is 0.9 nM; with A-549 lung carcinoma, 13 nM.

The values above are taken from US7122549B2, “Saframycins, analogues and uses thereof” (President and Fellows of Harvard College, priority 2000, dated 2006).
